Legend:
Format in all cases: biochemical
R2R3 (WT) tau peptide [1] = target: T1, R2R3 (WT) tau peptide (Homo sapiens, UniProt P10636); assay: ThT aggregation assay of monomeric R2R3 (WT) peptide; conditions: compound 10 μM; for ThT-stained aggregates, confocal imaging: R2R3 WT, end of ThT assay
T1 construct: Peptides spanning R2R3—including PHF6 and PHF6*; purchased ProteoGenix (Schiltigheim, France); host or cells: chemical synthesis (custom peptide)
Experimental: (§1) The aggregation kinetics of tau peptides were monitored using a ThT assay. A 40 μL reaction mixture containing 15 μM ThT (Sigma‐Aldrich, Cat. # T3516‐5G) and 50 μM peptide in the absence (control) or presence of 0.1 μM, 1 μM, and 10 μM PUR or OLC was prepared on ice in aggregation buffer (20 mM Tris [pH 7.4], 100 mM NaCl, 1 mM ethylenediaminetetraacetic acid [EDTA]) containing 5 μM heparin (Sigma‐Aldrich, Cat. #H4784). dithiothreitol (DTT) was excluded to avoid its differential effects on the aggregation kinetics of tau peptides containing Cys291 or Cys322 and to prevent peroxide generation by redox‐active compounds like PUR, which can lead to oxidative artifacts and false‐positive inhibition signals, as reported in our previous study (Annadurai, Malina, Salmona, et al., [2022]). This mixture was then dispensed into a clear‐bottom, black 384‐well ViewPlate (Revvity, Waltham, MA, United States; Part # 6007460) and sealed with a TopSealA‐PLUS (Revvity) to prevent evaporation.
Aggregation was monitored using EnSpire Multimode Plate Reader (Revvity) at 37°C with constant agitation (1000 rpm). […] ThT fluorescence (ThT—λ ex: 460–490 nm and λem: 500–550 nm) was recorded every 5–10 min for 48 h.
(§2) ThT fluorescence curves were fitted to a sigmoidal function in GraphPad Prism (version 10, San Diego, CA, USA) using the following equation:
Y=Top/1+expV50–X/Slope , where Y is the ThT fluorescence intensity, X is time (h), Top is the maximum fluorescence intensity, V50 is the time to reach 50% of Top, and Slope describes the steepness of the aggregation transition. Baseline fluorescence at the start of the measurements was relatively low across samples and was not separately fitted. In samples showing early increases in fluorescence, the aggregation trajectory was modeled directly without introducing an independent baseline parameter. […]
To evaluate the effect of compounds on the extent of aggregation, the AUC was calculated for each replicate ThT fluorescence curve using GraphPad Prism. […]

R2R3 (N279K) tau peptide [2] = target: T2, R2R3 (N279K) tau peptide (Homo sapiens, UniProt P10636, N596K); assay: ThT aggregation assay of monomeric R2R3 (N279K) peptide; conditions: for ThT-stained aggregates, confocal imaging: R2R3 N279K, end of ThT assay
T2 sequence (P10636 592-653 N596K): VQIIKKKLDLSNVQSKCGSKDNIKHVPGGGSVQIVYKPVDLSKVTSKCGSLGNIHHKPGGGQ
Experimental: as §1
Aggregation was monitored using EnSpire Multimode Plate Reader (Revvity) at 37°C with constant agitation (1000 rpm). To minimize condensation, the upper heater temperature was set to 2°C higher than the lower heater temperature. ThT fluorescence (ThT—λ ex: 460–490 nm and λem: 500–550 nm) was recorded every 5–10 min for 48 h.
as §2
Y=Top/1+expV50–X/Slope , where Y is the ThT fluorescence intensity, X is time (h), Top is the maximum fluorescence intensity, V50 is the time to reach 50% of Top, and Slope describes the steepness of the aggregation transition. Baseline fluorescence at the start of the measurements was relatively low across samples and was not separately fitted. In samples showing early increases in fluorescence, the aggregation trajectory was modeled directly without introducing an independent baseline parameter.
The V50 value obtained from each replicate was used as the aggregation t 1/2 for statistical analysis.
To evaluate the effect of compounds on the extent of aggregation, the AUC was calculated for each replicate ThT fluorescence curve using GraphPad Prism. AUC values were then normalized to the mean AUC of the untreated control group and expressed as “aggregation (% of control),” serving as an indirect and comparative measure of fibril formation.
Figure S11. Confocal imaging of ThT-stained aggregates formed in the presence of PUR and OLC (corresponding to Figure 3). At the end of the ThT aggregation assay, reaction mixtures containing WT or mutant R2R3 tau peptides (P301L, V287I, N279K), incubated in the absence (CTL) or presence of 10 µM PUR or OLC, were collected from assay wells, embedded in 0.05% low-melting agarose, and imaged. ThT fluorescence was acquired using a Yokogawa Cell Voyager 7000S high-content imaging system equipped with a 20× objective (Ex: 460–490 nm, Em: 500–550 nm) and analyzed with Signals Image Artist (Revvity). […] Scale bar: 20 μm.

R2R3 (WT) tau peptide [3] = target: T1, R2R3 (WT) tau peptide; assay: Atomic force microscopy of R2R3 (WT) aggregates; conditions: compound 10 μM, 48 h
Experimental: (§3) Aggregates collected after 48 h of aggregation were processed for AFM analysis as described previously (Annadurai, Malina, Malohlava, et al., [2022]).

R2R3 (V287I) tau peptide = R2R3 (V287I) tau peptide (Homo sapiens, UniProt P10636, V604I); assay: Atomic force microscopy of R2R3 (V287I) aggregates; conditions: compound 10 μM, 48 h
Sequence of R2R3 (V287I) tau peptide (P10636 592-653 V604I): as the sequence (P10636 592-653 N596K) above, with K5N, V13I counted along it
Experimental: as §3

R2R3 (N279K) tau peptide [4] = target: T2, R2R3 (N279K) tau peptide; assay: Atomic force microscopy of R2R3 (N279K) aggregates; conditions: compound 10 μM, 48 h
Experimental: as §3

[5] = system: preformed R2R3 (V287I) fibrils; assay: Elongation of preformed R2R3 (V287I) fibrils, ThT; conditions: R2R3 V287I pre-aggregated 24 h, compound 10 μM
Experimental: Peptides were pre‐aggregated for 24 h with aggregation kinetics monitored by ThT fluorescence, after which 10 μM PUR or OLC was added, followed by an additional 24–30 h of incubation (Figure 4a). Aggregation kinetics was monitored by ThT fluorescence, and elongation was quantified as the AUC following compound addition, normalized to each replicate's maximum pre‐treatment fluorescence (Figure 4b). […] WT peptide fibril elongation was reduced to 15.5 ± 2.8% (PUR) and 45.2 ± 3.2% (OLC), and P301L peptide fibril elongation was limited to 31.8 ± 0.6% (PUR) and 85.6 ± 2.2% (OLC) (Figure 4b). Fluorescence microscopy imaging further confirmed the presence of reduced ThT‐positive aggregates following the addition of PUR and OLC (Figure S12). Similar inhibition trends, with PUR outperforming OLC, were also observed for V287I and N279K peptides (Figure S12).
Figure S13. […] (a) ThT fluorescence kinetics of pre-aggregated R2R3 (V287I and N279K ) tau peptides treated with PUR or OLC (10 µM). Peptides were first allowed to aggregate for 24 h, followed by compound addition and continued incubation for an additional 24-30 h. […] Curves are normalized to each replicate’s maximum pre-treatment ThT fluorescence. […] (b) Aggregation levels post-treatment, expressed as a percentage of control (untreated fibrils), calculated from the AUC after compound addition. […]

T1 sequence (P10636 592-653 limits assumed): as the sequence (P10636 592-653 N596K) above, with K5N counted along it

Question: With C/C=C(/C=O)[C@@H](CC=O)CC(=O)OCCc1ccc(O)cc1 [OLC, oleocanthal] as the compound, how does the “ThT-stained aggregates, confocal imaging” value (R2R3 (WT) tau peptide [1]) read?
Answer: moderate reduction in fluorescence intensity

Question: And the “aggregation (% of control), AUC of ThT fluorescence” value (R2R3 (N279K) tau peptide [2]; R2R3 N279K 50 μM, compound 0.1 μM)?
Answer: 74%

Question: And the “aggregation (% of control), AUC of ThT fluorescence” value (R2R3 (N279K) tau peptide [2]; R2R3 N279K 50 μM, compound 1 μM)?
Answer: 61%

Question: What about the “aggregation, ThT fluorescence” value (R2R3 (N279K) tau peptide [2]; R2R3 N279K 50 μM, compound 10 μM) of the same compound?
Answer: complete aggregation suppression

Question: What about the “ThT-stained aggregates, confocal imaging” value (R2R3 (N279K) tau peptide [2]; compound 10 μM) of the same compound?
Answer: marked reduction in ThT signal

Question: And the “AFM morphology of aggregates” value (R2R3 (WT) tau peptide [3])?
Answer: shorter, fragmented fibrils

Question: And the “AFM morphology of aggregates” value (R2R3 (V287I) tau peptide)?
Answer: no fibrillar or aggregated structures were detected

Question: What about the “AFM morphology of aggregates” value (R2R3 (N279K) tau peptide [4]) of the same compound?
Answer: no fibrillar or aggregated structures were detected

Question: What about the “elongation of preformed fibrils” value [5] of the same compound?
Answer: inhibit the elongation

Question: O=C1c2ccccc2C(=O)c2c(O)c(O)cc(O)c21 [PUR, purpurin] was tested. Which remaining activity at 10 µM (R2R3 (WT) tau peptide [1]; R2R3 WT 50 μM, read-out: aggregation (% of control), AUC of ThT fluorescence) did it give?
Answer: 63%

Question: And the “ThT-stained aggregates, confocal imaging” value (R2R3 (WT) tau peptide [1])?
Answer: moderate reduction in fluorescence intensity

Question: And the remaining activity at 0.1 µM (R2R3 (N279K) tau peptide [2]; R2R3 N279K 50 μM, compound 0.1 μM, read-out: aggregation (% of control), AUC of ThT fluorescence)?
Answer: 44%

Question: What about the remaining activity at 1 µM (R2R3 (N279K) tau peptide [2]; R2R3 N279K 50 μM, compound 1 μM, read-out: aggregation (% of control), AUC of ThT fluorescence) of the same compound?
Answer: 19%

Question: What about the “ThT-stained aggregates, confocal imaging” value (R2R3 (N279K) tau peptide [2]; compound 10 μM) of the same compound?
Answer: marked reduction in ThT signal

Question: And the “AFM morphology of aggregates” value (R2R3 (WT) tau peptide [3])?
Answer: shorter, fragmented fibrils

Question: What about the “AFM morphology of aggregates” value (R2R3 (V287I) tau peptide) of the same compound?
Answer: no fibrillar or aggregated structures were detected

Question: What about the “AFM morphology of aggregates” value (R2R3 (N279K) tau peptide [4]) of the same compound?
Answer: no fibrillar or aggregated structures were detected

Question: What about the “elongation of preformed fibrils” value [5] of the same compound?
Answer: inhibit the elongation

Source: PMC12381781, “Structural and functional insights into the selective inhibition of mutant tau aggregation by purpurin and oleocanthal in frontotemporal dementia” (Protein Science : A Publication of the Protein Society, 2025)
